Results as given in paper PMC3634465, “New Anti-Inflammatory Aromatic Components from Antrodia camphorata” (International Journal of Molecular Sciences, 2013).
Values after ≈ are worked out from the molar mass of the structure shown.

Key:
[1] = system: LPS-induced NO production in RAW264.7 macrophages; assay: LPS-induced NO production in macrophages (nitrite, Griess reaction); type: cell-based, murine; settings: LPS 100 ng/mL, 24 h; for IC50: Mus musculus, RAW264.7, non-linear regression, read-out: IC50 of inhibition of LPS-induced NO production; for NO level: LPS alone 25.3 ± 3.0, control 2.5 ± 0.2
Protocol: (§1) A murine macrophage cell line, RAW264.7 (BCRC No. 60001), was purchased from the Bioresources Collection and Research Center (BCRC, Hsinchu, Taiwan) of the Food Industry Research and Development Institute (Hsinchu, Taiwan). Cells were cultured in plastic dishes containing Dulbecco’s Modified Eagle Medium (DMEM, Sigma, St. Louis, MO, USA) supplemented with 10% fetal bovine serum (FBS, Sigma) in a CO2 incubator (5% CO2 in air) at 37 °C and subcultured every 3 days at a dilution of 1:5 using 0.05% trypsin-0.02% EDTA in Ca^2+-, Mg^2+-free phosphate-buffered saline (DPBS).
NO production was indirectly assessed by measuring the nitrite levels in the cultured media and serum determined by a colorimetric method based on the Griess reaction. The cells were incubated with different concentrations of samples in the presence of LPS (100 ng/mL) at 37 °C for 24 h. Then, cells were dispensed into 96-well plates, and 100 μL of each supernatant was mixed with the same volume of Griess reagent (1% sulfanilamide, 0.1% naphthyl ethylenediamine dihydrochloride and 5% phosphoric acid) and incubated at room temperature for 10 min; the absorbance was measured at 540 nm with a Micro-Reader (Molecular Devices).
IC50 values were estimated using a non-linear regression algorithm (Sigma Plot 8.0; SPSS Inc., Chicago, IL, USA). Statistical evaluation was carried out by one-way analysis of variance (ANOVA, followed by Scheffe’s multiple range tests).

[2] = Cell viability (MTT) in the presence of LPS; type: cell-based, murine; settings: mouse, RAW264.7 macrophage cells, 100 ng/mL LPS, mean ± SD, read-out: Cell viability (% of control)
Protocol: as §1
Cells (2 × 10^5) were cultured in 96-well plate containing DMEM supplemented with 10% FBS for 1 day to become nearly confluent. Then, cells were cultured with compounds 1–5 in the presence of 100 ng/mL LPS (lipopolysaccharide) (Eschericha coli 026:B6; Sigma-Aldrich, St. Louis, Mo) for 24 h. After that, the cells were washed twice with DPBS and incubated with 100 μL of 0.5 mg/mL MTT for 2 h at 37 °C testing for cell viability. The medium was then discarded, and 100 μL dimethyl sulfoxide (DMSO) was added. After 30-min incubation, absorbance at 570 nm was read using a microplate reader (Molecular Devices, Sunnyvale, CA, USA).

Row | SMILES | IC50 [1] | NO level ([1]; dose 25 μg/mL) | viability at 24 h, 25 μg/mL [2] | viability at 24 h, 50 μg/mL [2] | NO level ([1]; dose 0.312 μg/mL) | NO level ([1]; dose 0.625 μg/mL) | NO level ([1]; dose 1.25 μg/mL) | NO level ([1]; dose 2.5 μg/mL) | viability at 24 h, 0.312 μg/mL [2] | viability at 24 h, 0.625 μg/mL [2] | viability at 24 h, 1.25 μg/mL [2] | viability at 24 h, 2.5 μg/mL [2] | viability at 24 h, 5 μg/mL [2] | other results
1 | COc1cc(C)c(OC)c(O)c1OC [Compound 4, 2,3,6-trimethoxy-5-methylphenol] |  |  |  |  | 20.6 ± 1.2 µM | 19.4 ± 2.0 µM | 18.3 ± 0.3 µM | 13.6 ± 0.6 µM | 97 ± 1.1% | 96.2 ± 2.2% | 95 ± 2.1% | 94.6 ± 1.6% | 69.3 ± 2.1% | 
2 | COc1ccc2c(c1)c(CC(=O)O)c(C)n2C(=O)c1ccc(Cl)cc1 [Indomethacin, indomethacin, reference compound] |  | 19.2 ± 0.6 µM | 96.2 ± 1.1% | 94.8 ± 1.3% |  |  |  |  |  |  |  |  |  | NO level ([1]; dose 50 μg/mL): 14.3 ± 0.8 µM
3 | COc1c(C)cc(-c2c(O)c(C)c(OC)c3c2OCO3)c2c1OCO2 [Compound 2, 2-hydroxy-4,4′-dimethoxy-3,3′-dimethyl-5,6,5′,6′-bimethylenedioxybiphenyl] |  |  |  |  | 16.4 ± 2.4 µM | 16.1 ± 1.3 µM | 15.7 ± 2.0 µM | 15.5 ± 1.9 µM | 98 ± 1.5% | 96.6 ± 7.6% | 96.6 ± 2.2% | 92.7 ± 1.3% | 71.4 ± 2.2% | 

The next lines start with results.

Row | IC50 [1] | SMILES | NO level ([1]; dose 25 μg/mL) | viability at 24 h, 25 μg/mL [2] | viability at 24 h, 50 μg/mL [2] | NO level ([1]; dose 0.312 μg/mL) | NO level ([1]; dose 0.625 μg/mL) | NO level ([1]; dose 1.25 μg/mL) | NO level ([1]; dose 2.5 μg/mL) | viability at 24 h, 0.312 μg/mL [2] | viability at 24 h, 0.625 μg/mL [2] | viability at 24 h, 1.25 μg/mL [2] | viability at 24 h, 2.5 μg/mL [2] | viability at 24 h, 5 μg/mL [2] | other results
4 | 18.8 ± 0.6 mg/L (≈ 51.9 µM) | COc1c(C)c(-c2c(C)c(OC)c(O)c3c2OCO3)c2c(c1O)OCO2 [Compound 3, 4,4′-dihydroxy-3,3′-dimethoxy-2,2′-dimethyl-5,6,5′,6′-bimethylenedioxybiphenyl] | 12.1 ± 0.6 µM | 91 ± 7.7% | 64.8 ± 2.2% |  |  |  |  |  |  |  |  |  | NO level ([1]; dose 3.12 μg/mL): 13.7 ± 0.1 µM; NO level ([1]; dose 6.25 μg/mL): 13.4 ± 0.4 µM; NO level ([1]; dose 12.5 μg/mL): 13.2 ± 0.1 µM; viability at 24 h, 3.12 μg/mL ([2]; dose 3.12 μg/mL): 95.1 ± 2.9%; viability at 24 h, 6.25 μg/mL ([2]; dose 6.25 μg/mL): 93.1 ± 2.7%; viability at 24 h, 12.5 μg/mL ([2]; dose 12.5 μg/mL): 93 ± 2.6%
5 | 0.8 ± 0.3 mg/L (≈ 4.39 µM) | COc1c(C)cc(O)c2c1OCO2 [Compound 5, 2,3-methylenedioxy-4-methoxy-5-methylphenol] |  |  |  | 15.2 ± 1.4 µM | 12.8 ± 1.9 µM | 12.1 ± 1.6 µM | 10.4 ± 1.3 µM | 93.8 ± 2.9% | 88.5 ± 1.5% | 85 ± 2.9% | 83.8 ± 1.9% | 82.4 ± 2.7% | NO level ([1]; dose 5 μg/mL): 10.0 ± 2.2 µM
6 | 1.8 ± 0.2 mg/L (≈ 8.1 µM) | C=C(C)c1c(OC)c(O)c(C)c2c1OCO2 [Compound 1, 3-isopropenyl-2-methoxy-6-methyl-4,5-methylenedioxyphenol] |  |  |  | 14.5 ± 2.2 µM | 14.1 ± 1.5 µM | 13.0 ± 1.5 µM | 12.0 ± 1.7 µM | 92 ± 3.3% | 91 ± 3.7% | 90.4 ± 2.4% | 87.3 ± 2.3% | 65.5 ± 1.7% | 
